These results are taken from patent US6670334B2, “Method and compositions for treating the inflammatory response” (University of Virginia Patent Foundation, priority 2001, dated 2003).

Assay [1] deals with human neutrophils. Kind of assay: Neutrophil oxidative activity (luminol-enhanced chemiluminescence), TNF/f-met-leu-phe stimulation. The note with it: TNF-alpha 10 U/ml primed, fMLP 1 μM stimulated, ADA 1 Units/ml, FIG. 13, read-out: EC50 for decreasing neutrophil oxidative activity. It is filed as cell-based. An excerpt:
A2A agonists blocking of neutrophil oxidative activity. […] This was detected by luminol-enhanced chemiluminescence. The EC50's were lower for the ester when compared to its acid.
A one-step Ficoll-Hypaque separation procedure (Ferrante and Thong, 1980) was used to purify human neutrophils from normal heparinized (10 Units/ml) of venous blood yielding approximately 98% neutrophils; having about >95% viable as determined with trypan blue containing <50 pg/ml of endotoxin. Following separation, the neutrophils were washed with Hank's balanced salt solution (HBSS) three times.
Neutrophil oxidative activity (luminol-enhanced chemiluminescence): The activated neutrophils emit light from unstable high-energy oxygen species produced by the plasma membrane associated NADPH oxidase and metabolized by cytoplasmic and granule enzymes. The light signal from activated neutrophils can be enhanced by the addition of luminol to the samples. […]
The purified neutrophils (1×10^6/ml) were incubated in HBSS containing 0.1% HSA (1 ml), plus adenosine deaminase (1 Units/ml), ±JR2171 or ±CGS21680, and with TNF-alpha (10 U/ml) for 30 min at 37° C. in a shaking water bath. Then luminol ([…]) enhanced f-met-leu-phe (1 μM)-stimulated chemiluminescence was read with a Chronolog Photometer (Chronolog Corp., Havertown, Pa.) at 37° C. for 8 min. […]

Assay [2] deals with PMN. Kind of assay: TNF-stimulated PMN adherence to a fibrinogen-coated surface. It is filed as cell-based, human. The protocol:
PMN adherence to fibrinogen was measured as follows as adapted from Hanlon, J. Leukocyte Biol., 50, 43 (1991). Twenty-four well flat-bottomed tissue culture plates were incubated (37° C.) overnight with 0.5 ml of fibrinogen (5 mg/ml) dissolved in 1.5% NaHCO3. The plates were emptied and each well washed 2× with 1 ml of normal saline. The wells were then filled with 1 ml of HBSS-0.1% human serum albumin containing PMN (1×10^6/ml) with and without rhTNFα (1 U/ml), adenosine deaminase (ADA) (1 U/ML), WRC-0474[SHA 211] (10 nM), CGS21680 (30 nM), adenosine (100 nM) and rolipram (100 nM). The plates were incubated for 90 minutes at 37° C. in 5% CO2. Following incubation the tissue culture wells were washed free of non-adherent cells with normal saline. The adherent monolayer of PMN was lysed with 0.1% triton-X, the amount of lactic dehydrogenase (LDH) released from the monolayer assayed (LDH kit, Sigma Co., St. Louis, Mo.), and compared to a standard curve relating the LDH content to PMN numbers.

Assay [3] concerns the target recombinant human A2A adenosine receptors (Homo sapiens, UniProt P29274). Kind of assay: Radioligand binding assay, competition for 125I-ZM241385.
The subject of assay [4] is Adult wistar rats with bacteria meningitis (BM). The assay is described as follows: Rat model of inflammation (bacteria meningitis): CSF WBC pleocytosis and blood-brain barrier permeability. It counts as in vivo. The protocol:
Effects of WRC-0470 and rolipram on the extravasation of white blood cells in a rat model of inflammation. Adult wistar rats (approximately 200 g) were anesthetized with intermuscular injections of ketamine and xylazine. Bacteria meningitis (BM) was introduced via intracistemal inoculation of either E. coli strain 026:B6LPS (200 ng), cytokines (IL-1 and TNFα or LPS plus cytokines). The animals were then infused with rolipram and/or WRC-1470 over the duration of the experiment using a Harvard pump. CSF (cerebrospinal fluid) and blood was then sampled at 4 h post-inoculation and alterations in BBBP (blood-brain barrier permeability) and WBC (white blood cell) counts were determined. CSF and WBC concentrations were determined with standard hemacytometer methods. For assessment of % BBBP, rats were given an intravenous injection of 5 μCi 125I-labeled bovine serum albumin concomitant with intracistemal inoculation. Equal samples of CSF and blood were read simultaneously in a gamma counter and after subtraction of background radioactivity, % BBBP was calculated by the following formula: % BBBP=(cpm CSF/cpm blood)×100. All statistical tests were performed using Instat biostatistical software to compare the post-inoculation samples of experimental rats with the control rats. The statistical tests used to generate p-values were Student's t-test and ANOVA.

Assay [5] relates to Human PMN adherent to fibrinogen. Kind of assay: TNFα-stimulated superoxide release of PMN adherent to a fibrinogen coated surface. It is filed as cell-based. Conditions: rolipram 100 nM; WRC-0474[SHA 211] 30-300 nM, other agonists 300 nM; p<0.05; FIG. 5.
Assay [6] has as its system human adherent monocytes. The assay is described as follows: Production of TNFα by purified human adherent monocytes (endotoxin-stimulated, ELISA). The note with it: ZM241385 50 nM; p=0.020; FIG. 7B. It counts as cell-based. As for the experimental part: Production of TNFα by purified human adherent monocytes. A monocyte rich monolayer (>95% monocytes) was prepared by incubating 1 ml of the mononuclear leukocyte fraction (5×10^5/ml) from a Ficoll-Hypaque separation in wells of a 24 well tissue culture plate (1 hr; 37° C.; 5% CO2). […] The samples were incubated for 4 hr (37° C.; 5% CO2) and the supernatants harvested. Any suspended cells were removed by centrifugation and the cell-free samples frozen (−70° C.). TNFα was assayed in the cell-free supernatants by an ELISA kit (Cistron Biotechnology, Pine Brook, N.J.).

Sequence of recombinant human A2A adenosine receptors (P29274 whole entry): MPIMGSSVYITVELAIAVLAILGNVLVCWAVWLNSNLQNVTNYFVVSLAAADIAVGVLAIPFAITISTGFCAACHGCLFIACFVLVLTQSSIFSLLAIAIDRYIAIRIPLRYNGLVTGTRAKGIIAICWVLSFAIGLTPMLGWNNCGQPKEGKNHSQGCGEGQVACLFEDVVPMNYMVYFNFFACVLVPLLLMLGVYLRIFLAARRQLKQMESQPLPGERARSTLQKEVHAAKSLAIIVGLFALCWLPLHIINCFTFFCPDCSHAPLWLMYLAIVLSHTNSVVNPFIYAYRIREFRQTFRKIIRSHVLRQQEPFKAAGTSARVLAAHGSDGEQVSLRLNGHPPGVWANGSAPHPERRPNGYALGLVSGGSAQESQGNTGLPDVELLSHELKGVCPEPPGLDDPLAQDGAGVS

For `CCNC(=O)C1OC(n2cnc3c(N)nc(NCCc4ccc(CCC(=O)O)cc4)nc32)C(O)C1O` (stereo not drawn) [CGS21680, 3-(4-{2-[6-amino-9-(5-ethylcarbamoyl-3,4-dihydroxy-tetrahydro-furan-2-yl)-9H-purin-2-ylamino]-ethyl}-phenyl)-propionic acid], in assay [1], the EC50 turned out to be 2.09 nM. Further, the “TNF-stimulated PMN adherence, % adhered” value in assay [2] (30 nM, in the presence of ADA, TNF+ADA control 38%, p=0.004) stood at 30%.

Take `CCNC(=O)C1OC(n2cnc3c(N)nc(NCCc4ccc(CCC(=O)OC)cc4)nc32)C(O)C1O` (stereo not drawn) [JR2171, 3-(4-{2-[6-Amino-9-(5-ethylcarbamoyl-3,4-dihydroxy-tetrahydro-furan-2-yl)9H-purin-2-ylamino]-ethyl}-phenyl)-propionic acid methyl ester]: in assay [3], the Ki worked out at 45 nM. In assay [1], the 50% effective concentration (EC50) is 0.371 nM.

Consider `COc1ccc(C2CNC(=O)C2)cc1OC1CCCC1` (stereo not drawn) [Rolipram, 4-(3-cyclopentyloxy-4-methoxyphenyl)-2-pyrrolidone], for which the “alterations of BBBP” value in assay [4] (0.002 μg/kg/hr) was “no significant effect”; in assay [4] (0.01 or 0.005 μg/kg/hr, p<0.05) it was “significant inhibition”. In addition, the “inhibition of CSF pleocytosis” value in assay [4] (0.01 μg/kg/hr, p<0.05, FIG. 10) is given as 99%. For the same molecule, the “WBC migrated into the sub-arachnoid space (CSF WBC)” value in assay [4] (rolipram alone (0.001 μg/kg/hr), p<0.050) is listed as 1,670±1,273 WBC/μl.

On to `Nc1nc(OCCc2ccc3ccccc3c2)nc2c1ncn2[C@@H]1O[C@H](CO)[C@@H](O)[C@H]1O` [WRC-0018], for which the “TNFα-stimulated adherent PMN superoxide release, agonist combined with rolipram” value in assay [5] is recorded as “synergistically decreased superoxide release”.

In the case of `Cc1ccc(CCOc2nc(N)c3ncn([C@@H]4O[C@H](CO)[C@@H](O)[C@H]4O)c3n2)cc1` [WRC-0090], the “TNFα-stimulated adherent PMN superoxide release, agonist combined with rolipram” value in assay [5] is listed as “synergistically decreased superoxide release”.

On to `Nc1nc(NCCc2ccc(O)cc2)nc2nc(-c3ccco3)nn12` [ZM241385, 4-(2-[7-amino-2-(2-furyl)[1,2,4]-triazolo[2,3a]-[1,3,5]trazinyl-amino]ethyl)-phenol], for which the “antagonism of the effect of WRC-0470 (300 nM) combined with rolipram (300 nM) on TNFα release from monocytes” value in assay [6] is given as “significantly inhibited the effect”.

Take `Nc1ncnc2c1ncn2[C@@H]1O[C@H](CO)[C@@H](O)[C@H]1O` [adenosine]: in assay [2] (100 nM, p=0.009 compared to TNF in the presence of ADA), the “TNF-stimulated PMN adherence, % adhered” value turned out to be 28%.
